# pIC50, pKi: −log10 of the molar value.
# Experiments:
# NRK49F cells = experiment: Cell viability MTT assay in myofibroblasts; assay type: cell-based, rat; details: 24-hours treatment, commonly used doses 1-10 μM
# [1] = test system: NRK49F rat kidney interstitial fibroblast cell lines; experiment: PDGFB-induced myofibroblast proliferation (MTT); assay type: cell-based; details: for PDGF-induced myofibroblast proliferation: 10 ng/mL PDGFB, 24 hours, different concentrations of agonist
# [2] = test system: Streptozotocin induced type 1 diabetic rats; experiment: Diabetic rat kidney: Masson's trichrome staining, tubulointerstitial fibrosis; assay type: in vivo; details: rats treated with 20 mg fluvoxamine + NE-100 1 mg/bwkg/day
# [3] = test system: Streptozotocin induced type 1 diabetic rats; experiment: Diabetic rat kidney: PAS staining, mesangial matrix expansion; assay type: in vivo; details: fluvoxamine 20 or 2 mg/bwkg/day + NE-100 1 mg/bwkg/day
# [4] = test system: Streptozotocin induced type 1 diabetic rats; experiment: Diabetic rat kidney: fibronectin staining; assay type: in vivo; details: fluvoxamine 20 mg/bwkg/day + NE-100 1 mg/bwkg/day
# [5] = test system: Streptozotocin induced type 1 diabetic rats; experiment: Diabetic rat kidney: αSMA protein level, western blot; assay type: in vivo; details: diabetic rats, fluvoxamine + NE-100 1 mg/bwkg/day
# [6] = test system: mice with unilateral ureter obstruction (UUO); experiment: Mice model of unilateral ureteral obstruction (UUO): Masson's trichrome, tubulointerstitial fibrosis; assay type: in vivo; details: fluvoxamine 20 mg/bwkg/day + NE-100 1 mg/bwkg/day for one week
# [7] = test system: rat model of bleomycin-induced lung fibrosis; experiment: Rat model of bleomycin induced pulmonary fibrosis: Masson trichrome staining of lung; assay type: in vivo; details: fluvoxamine 20 mg/bwkg/day + NE-100 1 mg/bwkg/day for three weeks
# Protocol: Masson trichrome staining of tissue sections was performed Bars represent Mean±SEM, n=6/group). Specifically:
# (§1) For the induction of pulmonary fibrosis male Wistar rats were anesthetized. Bleomycin (5 mg/bwkg in a 300 μl solution of isotonic saline) or 300 μl isotonic saline was administered into the trachea using a 30G needle.
# (§2) Animals were randomly divided into 4 groups of 6 rats each as follows (i)—control group was sham operated, received isotonic saline per os daily for 3 weeks, (ii) vehicle treated group: received isotonic saline per os daily for 3 weeks after the induction of lung fibrosis, (iii) fluvoxamine treated group: received fluvoxamine (20 mg/bwkg/day per os for 3 weeks after the induction of lung fibrosis), (iv) fluvoxamine+NE100 treated group: received fluvoxamine (20 mg/bwkg/day; per os) and 1 mg/bwkg/day NE100 (i.p. for 3 weeks after the induction of lung fibrosis. […]
# The stained sections were viewed and photographed with Pannoramic 250 Flash and Pannoramic Viewer 1.15.2 (3D HISTECH Ltd. Budapest, Hungary) Adobe Photoshop 13.0 and Scion Image for Windows software were used for the analysis. […] Finally these ratios were statistically analyzed in all of the treatment groups.
# [8] = test system: rat model of bleomycin-induced lung fibrosis; experiment: Rat model of bleomycin induced pulmonary fibrosis: αSMA protein in lung, western blot; assay type: in vivo; details: fluvoxamine 20 mg/bwkg/day + NE-100 1 mg/bwkg/day for three weeks
# Protocol: (Bars represent Mean±SEM, n=6/group).
# as §1, §2
# Tissue samples were lysed in buffer containing leupeptin, aprotinin, Triton X-100, Tris-HCl, Ethylene glycol-bis (2-aminoethylether),N,N,N′,N′-tetraacetic-acid, NaF, Phenylmethylsulphonylfluoride and Na-orthovanadate (each substance were purchased from Sigma-Aldrich Co., St. Louis, Mo., USA) and centrifuged to pellet nuclei and large cellular fragments. Protein concentration of the supernatants was determined by Bradford assay (Bio-Rad Laboratories, Hercules, Calif., USA). […] Bands were analyzed with Quantity One software version 4.6.9. […]
# NRK49F myofibroblasts = details: all applied concentrations, even the smallest 1 μM
# Protocol: In 6-well plates of NRK49F myofibroblasts (6×10^6 cells/well) TGF-β (1 nM) induced production of fibrillar components of the extracellular matrix was measured by Sirius Red staining. To investigate the effect of S1R agonist compounds a group of cells was treated for 48 hours with the various S1R agonists. Solvent treated cells served as controls. (Bars represent mean±SEM)
# To investigate the deposition of fibrillar collagen Sirius Red staining was performed. 48 hours after the treatment with TGF-β and said compounds the NRK-49F cells were incubated for 10 minutes with Kahle fixative solution. 0.1% Sirius Red (Direct Red 80, Sigma-Aldrich) in 1.2% picric acid was added for each well and plates were incubated for 30 minutes at RT. The unconnected dye molecules were washed with distilled water. The bound Sirius Red dye was eluated with 0.1 M NaOH solution, absorbance was recorded at 540 nm in a Hidex Chameleon Microplate Reader (Triathler, Plate Chameleion, 300SL Lablogic Systems, Inc., Brandon, Fla., USA) used MikroWin program. Vehicle treated cells served as controls.
# S2R = S2R (Homo sapiens, UniProt Q5BJF2); details: read-out: Ki for σ2 receptors; cited from earlier work
# PCP receptors = details: cited from earlier work
# [9] = test system: Japanese patients with IPF; details: 1,800 mg/day, 107 Japanese patients with IPF; cited from earlier work
# [10] = test system: post-AMI left ventricular remodeling / infarct expansion; details: cited from earlier work
# S2R, sequence (Q5BJF2 whole entry, species assumed): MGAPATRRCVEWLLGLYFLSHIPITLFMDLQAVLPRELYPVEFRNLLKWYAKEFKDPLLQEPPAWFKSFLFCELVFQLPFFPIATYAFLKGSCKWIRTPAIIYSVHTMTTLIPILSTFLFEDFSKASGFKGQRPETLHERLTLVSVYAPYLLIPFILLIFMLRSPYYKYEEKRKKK
compound,measurement,setting,value
"CCCN(CCC)CCc1ccc(OC)c(OCCc2ccccc2)c1.Cl [NE-100, 4-Methoxy-3-(2-phenylethoxy)-N,N-dipropylbenzeneethanamine hydrochloride]",cytotoxicity / cell viability in myofibroblasts,NRK49F cells,not cytotoxic
same,effect of NE-100 co-incubation on anti-proliferative effect of fluvoxamine,"[1]; NE-100 3 μM with fluvoxamine 10 μM, PDGF-induced",suspended the effect of fluvoxamine
same,effect of NE-100 co-administration on protective effect of fluvoxamine (tubulointerstitial fibrosis),[2],inhibited the protective effect of fluvoxamine
same,effect of NE-100 co-administration on renoprotection of fluvoxamine (mesangial matrix expansion),[3],prohibited the renoprotection of fluvoxamine
same,effect of NE-100 on fluvoxamine's effect on fibronectin accumulation,[4],suspended this beneficial effect
same,effect of NE-100 co-administration on fluvoxamine's effect on αSMA protein level,[5],suspended
same,effect of NE-100 on fluvoxamine's effect on tubulointerstitial fibrosis after UUO,[6],suspended the beneficial effect of fluvoxamine
same,effect of NE-100 on fluvoxamine's effect on lung fibrosis,[7],suspended the effect of fluvoxamine
same,effect of NE-100 on fluvoxamine's effect on lung αSMA,[8],suspended the beneficial effect of fluvoxamine
"O=C(OCCN1CCOCC1)C1(c2ccccc2)CCCCC1 [PRE-084, 2-morpholin-4-ylethyl 1-phenylcyclohexane-1-carboxylate]",cytotoxicity / cell viability in myofibroblasts,NRK49F cells,not cytotoxic
same,PDGF-induced myofibroblast proliferation,[1],significantly decreased PDGF-induced myofibroblast proliferation
same,TGFβ-induced ECM production (Sirius Red),NRK49F myofibroblasts,significantly inhibited TGFβ-induced ECM production
same,pKi,S2R,4.88
same,pIC50,PCP receptors,< 4.00
"COc1ccc(CCN2CCN(CCCc3ccccc3)CC2)cc1OC [SA-4503, 1-[2-(3,4-Dimethoxyphenyl)ethyl]-4-(3-phenylpropyl)piperazine]",cytotoxicity / cell viability in myofibroblasts,NRK49F cells,not cytotoxic
same,PDGF-induced myofibroblast proliferation,[1],significantly decreased PDGF-induced myofibroblast proliferation
same,TGFβ-induced ECM production (Sirius Red),NRK49F myofibroblasts,significantly inhibited TGFβ-induced ECM production
"Cc1ccc(=O)n(-c2ccccc2)c1 [pirfenidone, 5-Methyl-1-phenylpyridin-2-one]","primary end point, pirfenidone versus placebo",[9],not significantly different between the two groups
"COc1ccc(/C=C/C(=O)Nc2ccccc2C(=O)O)cc1OC [tranilast, 2-{[(2E)-3-(3,4-dimethoxyphenyl)prop-2-enoyl]amino}benzoic acid]",left ventricular remodeling,[10]; commencement of treatment delayed to 7 days post-AMI,impeded left ventricular remodeling
same,infarct expansion,[10]; intervention from 24h post-AMI,exacerbated infarct expansion

# Reference: patent publication US10842794B2, “Use of Sigma-1 receptor agonist compounds” (MTA TÁMOGATOTT KUTATÓCSOPORTOK IRODÁJA, priority 2014, dated 2020)
